“Also recorded” adds a separate entry of the source.
How the values were obtained:
Hartley guinea pigs = assay: Swallowing reflex (water drinking frequency) after repeated administrations of haloperidol; format: in vivo, guinea pig; conditions: haloperidol 1 mg/kg s.c. twice per day for 7 days, compared to physiological saline group
Method: (§1) To 6 week-old female Hartley guinea pigs (330 to 390 g) habituated for 1 week after receipt, a physiological saline solution, or a haloperidol solution was injected subcutaneously in a dosage of 1 mg/kg approx. every 12 hours twice per day for 7 days. Thereafter, a guinea pig was fixed at extremities, and 500 μL of distilled water was injected over 5 sec through a device to a part just before the pharynx, and the total frequency of swallowing until 10 sec and 30 sec from the injection was measured based on a muscle movement in a pharyngeal site. Thereafter a physiological saline solution, or a haloperidol solution was injected again (1 mg/kg).
The measurements were repeated totally 4 times at intervals of 1 min. […] Based on the result, the guinea pig was used as a dysphagia model induced by repeated administrations of haloperidol in the following experiments for evaluation of drug efficacy.

[1] = tested on: guinea pig dysphagia model induced by repeated administrations of haloperidol; assay: Swallowing reflex (water drinking frequency) in dysphagia model induced by repeated administrations of haloperidol; format: in vivo; conditions: for water drinking frequency (dysphagia improving effect): oral (intragastric)
normal guinea pig = assay: Swallowing reflex in normal guinea pig after local pharyngeal administration of substance P receptor antagonist; format: in vivo
Method: as §1
FK888 (10 μM, 50 μL/guinea pig), which is a substance P receptor antagonist, was administered locally with a spray device to a pharyngeal site of a guinea pig, and water drinking reflection frequency was measured in the same way as in Experiment 1.

[2] = tested on: guinea pig dysphagia model induced by repeated administrations of haloperidol; assay: Swallowing reflex (water drinking frequency) in dysphagia model induced by repeated administrations of haloperidol; format: in vivo; conditions: local spray to pharyngeal mucosa, 100 μL of 50 μM aqueous solution, 2 hours after administration
[3] = tested on: blood pressure increase by intravenous administration of angiotensin I in a normal rat; assay: Blood pressure increase induced by intravenous angiotensin I; conditions: oral, angiotensin I 300 ng/kg i.v. after 1 hour, SD male rats
Method: The respective dose of a captopril, or lisinopril aqueous solution was administered orally and the blood pressures were measured after 1 hour. Thereafter, angiotensin I was administered intravenously (300 ng/kg) to induce blood pressure increase and a change in the mean blood pressure was measured.

O=C(CCCN1CCC(O)(c2ccc(Cl)cc2)CC1)c1ccc(F)cc1 [haloperidol]
water drinking frequency (Hartley guinea pigs): significantly decreased

C[C@H](CS)C(=O)N1CCC[C@H]1C(=O)O [captopril]
water drinking frequency ([1]; 100 μL of 50 μM aqueous solution sprayed to pharyngeal mucosa, 30 min after spray): significant increase; also recorded: exhibited an improving effect on dysphagia | water drinking frequency ([1]; 100 μL of 50 mM aqueous solution sprayed to pharyngeal mucosa, 30 min after spray): significant increase; also recorded: exhibited an improving effect on dysphagia | water drinking frequency (dysphagia improving effect) ([1]; same dose as 100 μL of 50 μM aqueous solution, 30 min after administration): did not exert an influence | water drinking frequency (dysphagia improving effect) ([1]; same dose as 100 μL of 50 mM aqueous solution, 30 min after administration): did not exert an influence | decrease in swallowing reflex by FK888 administration (normal guinea pig; captopril aqueous solution sprayed to pharyngeal site 30 min before FK888): suppressed

CN(Cc1ccccc1)C(=O)[C@H](Cc1ccc2ccccc2c1)NC(=O)[C@@H]1C[C@@H](O)CN1C(=O)c1cn(C)c2ccccc12 [FK888]
lower limit not influencing swallowing reflex ([1]; 100 μL local spray to pharyngeal mucosa): 10 nM | increase in water drinking frequency by lisinopril (50 nM, 100 μL) ([1]; FK888 10 nM, 100 μL, local spray 15 min after lisinopril administration): almost completely suppressed | swallowing reflex (water drinking reflection frequency) (normal guinea pig; FK888 10 μM, 50 μL/guinea pig, local spray to pharyngeal site): decrease in swallowing reflex

NCCCC[C@H](N[C@@H](CCc1ccccc1)C(=O)O)C(=O)N1CCC[C@H]1C(=O)O [lisinopril]
dose giving significant increase in water drinking frequency ([1]; 100 μL aqueous solution sprayed to pharyngeal mucosa): ≥ 50 nM | water drinking frequency ([1]; 100 μL of 0.5 nM to 500 μM aqueous solution (pH 7.0) sprayed to pharyngeal mucosa): dose-dependent increase | water drinking frequency ([1]; 100 μL of 50 nM aqueous solution sprayed to pharyngeal mucosa, 30 min after administration): increase in water drinking frequency | water drinking frequency (dysphagia improving effect) ([1]; same dose as the local administration (100 μL of 50 mM), 2 hours after administration): exerted no influence; also recorded: no dysphagia improving effect was observed | water drinking frequency (dysphagia improving effect) [2]: exhibited an improving effect on dysphagia | vasopressor reaction by administration of angiotensin I (change in mean blood pressure) ([3]; 100 μL of 5 μM aqueous solution): had no influence | vasopressor reaction by administration of angiotensin I (change in mean blood pressure) ([3]; 100 μL of 5 mM aqueous solution): suppressed a vasopressor reaction
